{
  "source": "paper PMC7115413",
  "about": "(European Journal of Medicinal Chemistry, 2016)",
  "key": {"Solubility in water": {"test": "Solubility in water", "format": "physicochemical"}, "Cytotoxicity test": {"test": "Cytotoxicity test", "format": "cell-based", "conditions": "human, TZM-bl cells"}},
  "data": [
    {"substance": "enfuvirtide", "values": [
      {"measurement": "aqueous solubility (in words)", "setting": "Solubility in water", "result": "negligible"},
      {"measurement": "CC50", "setting": "Cytotoxicity test", "result": "> 100", "unit": "µM"}
    ]}
  ]
}
